Reference: ChEMBL document CHEMBL5442219

Assays:
Conditions in all cases: Compound concentration 10 µM
[1] = biological target: Histamine H2 receptor (Homo sapiens) (UniProt P25021)
Description: PDSP Primary Binding target: HRH2 - Compounds are tested at 10 uM concentration, plate are incubated at room temperature in the dark for 90 minutes. Reaction are stopped by vacuum filtration onto 0.3% polyethyleneimine soaked filter mats using Filtermate harvester. Scintilation cocktail is then melted onto microwave-dried filters on a hot plate and the radio activity is counted in Microbia counter.

[2] = biological target: D(1B) dopamine receptor (Homo sapiens) (UniProt P21918)
Description: PDSP Primary Binding target: DRD5 - Compounds are tested at 10 uM concentration, plate are incubated at room temperature in the dark for 90 minutes. Reaction are stopped by vacuum filtration onto 0.3% polyethyleneimine soaked filter mats using Filtermate harvester. Scintilation cocktail is then melted onto microwave-dried filters on a hot plate and the radio activity is counted in Microbia counter.

[3] = biological target: T1, Alpha-1B adrenergic receptor (Homo sapiens) (UniProt P35368)
T1 sequence (whole entry): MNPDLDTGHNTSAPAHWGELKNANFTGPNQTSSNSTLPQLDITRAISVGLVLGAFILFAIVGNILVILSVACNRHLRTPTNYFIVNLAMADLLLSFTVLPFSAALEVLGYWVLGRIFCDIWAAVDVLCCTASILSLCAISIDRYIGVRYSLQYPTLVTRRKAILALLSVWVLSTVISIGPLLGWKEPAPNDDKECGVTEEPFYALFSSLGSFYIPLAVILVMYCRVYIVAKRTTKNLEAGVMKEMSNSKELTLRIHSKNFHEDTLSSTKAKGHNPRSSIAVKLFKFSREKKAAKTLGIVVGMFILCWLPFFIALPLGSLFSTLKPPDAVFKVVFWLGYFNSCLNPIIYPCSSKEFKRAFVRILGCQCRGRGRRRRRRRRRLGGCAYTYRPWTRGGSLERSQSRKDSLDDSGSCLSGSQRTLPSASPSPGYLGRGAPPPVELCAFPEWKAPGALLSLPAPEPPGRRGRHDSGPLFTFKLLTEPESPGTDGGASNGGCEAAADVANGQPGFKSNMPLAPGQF
Description: PDSP Primary Binding target: ADRA1B - Compounds are tested at 10 uM concentration, plate are incubated at room temperature in the dark for 90 minutes. Reaction are stopped by vacuum filtration onto 0.3% polyethyleneimine soaked filter mats using Filtermate harvester. Scintilation cocktail is then melted onto microwave-dried filters on a hot plate and the radio activity is counted in Microbia counter.

[4] = biological target: Histamine H1 receptor (Homo sapiens) (UniProt P35367)
Description: PDSP Primary Binding target: HRH1 - Compounds are tested at 10 uM concentration, plate are incubated at room temperature in the dark for 90 minutes. Reaction are stopped by vacuum filtration onto 0.3% polyethyleneimine soaked filter mats using Filtermate harvester. Scintilation cocktail is then melted onto microwave-dried filters on a hot plate and the radio activity is counted in Microbia counter.

[5] = biological target: T2, Muscarinic acetylcholine receptor M2 (Homo sapiens) (UniProt P08172)
T2 sequence (whole entry): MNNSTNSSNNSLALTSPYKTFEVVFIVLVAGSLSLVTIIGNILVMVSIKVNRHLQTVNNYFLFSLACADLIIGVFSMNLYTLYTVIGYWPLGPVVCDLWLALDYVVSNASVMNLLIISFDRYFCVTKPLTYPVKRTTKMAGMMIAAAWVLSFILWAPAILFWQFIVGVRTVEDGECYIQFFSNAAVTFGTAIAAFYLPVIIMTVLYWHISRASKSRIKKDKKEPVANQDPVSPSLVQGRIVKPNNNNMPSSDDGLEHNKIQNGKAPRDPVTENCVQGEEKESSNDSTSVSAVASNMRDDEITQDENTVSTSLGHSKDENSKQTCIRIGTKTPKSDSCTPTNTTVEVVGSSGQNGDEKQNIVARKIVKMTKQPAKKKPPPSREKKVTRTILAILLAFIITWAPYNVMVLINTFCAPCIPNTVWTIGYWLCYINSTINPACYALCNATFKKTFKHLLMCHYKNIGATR
Description: PDSP Primary Binding target: CHRM2 - Compounds are tested at 10 uM concentration, plate are incubated at room temperature in the dark for 90 minutes. Reaction are stopped by vacuum filtration onto 0.3% polyethyleneimine soaked filter mats using Filtermate harvester. Scintilation cocktail is then melted onto microwave-dried filters on a hot plate and the radio activity is counted in Microbia counter.

[6] = biological target: T3, Muscarinic acetylcholine receptor M4 (Homo sapiens) (UniProt P08173)
T3 sequence (whole entry): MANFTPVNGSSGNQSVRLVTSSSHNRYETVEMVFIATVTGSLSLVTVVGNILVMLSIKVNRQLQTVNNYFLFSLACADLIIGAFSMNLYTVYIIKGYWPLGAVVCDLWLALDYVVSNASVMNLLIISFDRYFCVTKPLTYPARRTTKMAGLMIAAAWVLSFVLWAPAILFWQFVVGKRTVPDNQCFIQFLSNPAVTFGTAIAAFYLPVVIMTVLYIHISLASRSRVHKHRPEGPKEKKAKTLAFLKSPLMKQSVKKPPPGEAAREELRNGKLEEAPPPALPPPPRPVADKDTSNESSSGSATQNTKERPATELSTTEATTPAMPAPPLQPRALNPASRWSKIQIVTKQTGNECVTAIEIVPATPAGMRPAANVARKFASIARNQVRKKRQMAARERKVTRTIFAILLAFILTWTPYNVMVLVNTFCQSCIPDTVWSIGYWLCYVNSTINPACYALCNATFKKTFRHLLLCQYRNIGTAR
Description: PDSP Primary Binding target: CHRM4 - Compounds are tested at 10 uM concentration, plate are incubated at room temperature in the dark for 90 minutes. Reaction are stopped by vacuum filtration onto 0.3% polyethyleneimine soaked filter mats using Filtermate harvester. Scintilation cocktail is then melted onto microwave-dried filters on a hot plate and the radio activity is counted in Microbia counter.

[7] = biological target: Beta-3 adrenergic receptor (Homo sapiens) (UniProt P13945)
Description: PDSP Primary Binding target: ADRB3 - Compounds are tested at 10 uM concentration, plate are incubated at room temperature in the dark for 90 minutes. Reaction are stopped by vacuum filtration onto 0.3% polyethyleneimine soaked filter mats using Filtermate harvester. Scintilation cocktail is then melted onto microwave-dried filters on a hot plate and the radio activity is counted in Microbia counter.

[8] = biological target: T4, Alpha-2A adrenergic receptor (Homo sapiens) (UniProt P08913)
T4 sequence (whole entry): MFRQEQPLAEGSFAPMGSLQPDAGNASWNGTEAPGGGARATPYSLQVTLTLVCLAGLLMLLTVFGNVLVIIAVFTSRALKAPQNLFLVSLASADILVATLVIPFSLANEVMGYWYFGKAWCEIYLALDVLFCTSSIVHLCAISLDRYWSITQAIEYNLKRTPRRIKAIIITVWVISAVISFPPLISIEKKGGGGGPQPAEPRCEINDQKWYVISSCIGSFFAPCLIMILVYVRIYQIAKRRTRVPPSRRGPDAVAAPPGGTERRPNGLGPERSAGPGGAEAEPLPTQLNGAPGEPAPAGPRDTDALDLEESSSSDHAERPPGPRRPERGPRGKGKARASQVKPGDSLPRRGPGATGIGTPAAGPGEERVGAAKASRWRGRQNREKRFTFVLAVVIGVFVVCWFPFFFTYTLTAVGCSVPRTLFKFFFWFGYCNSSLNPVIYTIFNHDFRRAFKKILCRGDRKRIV
Description: PDSP Primary Binding target: ADRA2A - Compounds are tested at 10 uM concentration, plate are incubated at room temperature in the dark for 90 minutes. Reaction are stopped by vacuum filtration onto 0.3% polyethyleneimine soaked filter mats using Filtermate harvester. Scintilation cocktail is then melted onto microwave-dried filters on a hot plate and the radio activity is counted in Microbia counter.

[9] = biological target: 5-hydroxytryptamine receptor 6 (Homo sapiens) (UniProt P50406)
Description: PDSP Primary Binding target: HTR6 - Compounds are tested at 10 uM concentration, plate are incubated at room temperature in the dark for 90 minutes. Reaction are stopped by vacuum filtration onto 0.3% polyethyleneimine soaked filter mats using Filtermate harvester. Scintilation cocktail is then melted onto microwave-dried filters on a hot plate and the radio activity is counted in Microbia counter.

[10] = biological target: Kappa-type opioid receptor (Homo sapiens) (UniProt P41145)
Description: PDSP Primary Binding target: OPRK1 - Compounds are tested at 10 uM concentration, plate are incubated at room temperature in the dark for 90 minutes. Reaction are stopped by vacuum filtration onto 0.3% polyethyleneimine soaked filter mats using Filtermate harvester. Scintilation cocktail is then melted onto microwave-dried filters on a hot plate and the radio activity is counted in Microbia counter.

[11] = biological target: T5, Alpha-1D adrenergic receptor (Homo sapiens) (UniProt P25100)
T5 sequence (whole entry): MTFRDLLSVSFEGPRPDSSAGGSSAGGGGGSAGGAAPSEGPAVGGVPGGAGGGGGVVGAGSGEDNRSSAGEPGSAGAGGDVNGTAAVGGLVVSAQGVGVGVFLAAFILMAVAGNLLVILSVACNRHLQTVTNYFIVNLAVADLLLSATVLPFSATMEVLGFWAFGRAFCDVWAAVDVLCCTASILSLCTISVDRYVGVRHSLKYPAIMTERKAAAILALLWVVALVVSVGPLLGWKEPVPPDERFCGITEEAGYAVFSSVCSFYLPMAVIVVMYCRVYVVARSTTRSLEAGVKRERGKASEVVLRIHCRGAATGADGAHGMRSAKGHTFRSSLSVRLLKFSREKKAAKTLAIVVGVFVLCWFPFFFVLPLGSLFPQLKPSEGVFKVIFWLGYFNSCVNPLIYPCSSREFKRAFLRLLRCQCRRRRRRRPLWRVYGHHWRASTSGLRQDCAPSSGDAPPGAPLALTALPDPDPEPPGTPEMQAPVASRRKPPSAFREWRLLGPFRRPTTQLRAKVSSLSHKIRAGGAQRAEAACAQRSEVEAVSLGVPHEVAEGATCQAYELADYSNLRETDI
Description: PDSP Primary Binding target: ADRA1D - Compounds are tested at 10 uM concentration, plate are incubated at room temperature in the dark for 90 minutes. Reaction are stopped by vacuum filtration onto 0.3% polyethyleneimine soaked filter mats using Filtermate harvester. Scintilation cocktail is then melted onto microwave-dried filters on a hot plate and the radio activity is counted in Microbia counter.

Chain of Histamine H1 receptor (Homo sapiens) (P35367 whole entry): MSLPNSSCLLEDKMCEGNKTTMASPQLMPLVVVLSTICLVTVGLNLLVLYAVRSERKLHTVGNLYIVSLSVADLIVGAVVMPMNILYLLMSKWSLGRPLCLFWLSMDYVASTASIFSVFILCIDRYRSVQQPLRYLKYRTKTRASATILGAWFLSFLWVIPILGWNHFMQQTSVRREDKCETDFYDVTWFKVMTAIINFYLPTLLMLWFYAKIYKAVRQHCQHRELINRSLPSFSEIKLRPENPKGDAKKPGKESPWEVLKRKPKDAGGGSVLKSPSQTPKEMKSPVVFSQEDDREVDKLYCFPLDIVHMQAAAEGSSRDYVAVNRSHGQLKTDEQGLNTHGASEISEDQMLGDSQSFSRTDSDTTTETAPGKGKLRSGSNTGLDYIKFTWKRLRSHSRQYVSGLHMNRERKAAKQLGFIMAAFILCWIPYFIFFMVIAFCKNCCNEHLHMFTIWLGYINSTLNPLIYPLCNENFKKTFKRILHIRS
Chain of Kappa-type opioid receptor (Homo sapiens) (P41145 whole entry): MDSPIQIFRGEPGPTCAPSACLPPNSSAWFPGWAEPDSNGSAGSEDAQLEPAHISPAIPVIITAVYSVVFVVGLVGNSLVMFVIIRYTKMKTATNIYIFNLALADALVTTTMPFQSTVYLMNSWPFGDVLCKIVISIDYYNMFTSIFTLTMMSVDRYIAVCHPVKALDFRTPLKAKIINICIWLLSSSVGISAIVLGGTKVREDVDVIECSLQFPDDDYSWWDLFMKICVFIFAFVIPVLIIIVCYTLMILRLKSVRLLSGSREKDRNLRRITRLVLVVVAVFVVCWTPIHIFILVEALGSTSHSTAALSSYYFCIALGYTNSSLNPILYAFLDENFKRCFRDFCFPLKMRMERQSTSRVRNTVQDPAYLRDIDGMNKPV
Chain of Histamine H2 receptor (Homo sapiens) (P25021 whole entry): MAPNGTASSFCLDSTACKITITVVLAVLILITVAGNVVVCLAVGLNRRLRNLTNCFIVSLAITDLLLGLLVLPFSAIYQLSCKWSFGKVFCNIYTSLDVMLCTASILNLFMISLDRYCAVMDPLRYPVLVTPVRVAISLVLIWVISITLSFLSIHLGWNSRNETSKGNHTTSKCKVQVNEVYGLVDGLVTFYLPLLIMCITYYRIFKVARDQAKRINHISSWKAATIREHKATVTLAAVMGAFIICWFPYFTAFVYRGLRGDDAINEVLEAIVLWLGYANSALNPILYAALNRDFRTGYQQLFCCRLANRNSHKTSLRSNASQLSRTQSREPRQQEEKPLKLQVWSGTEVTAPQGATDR
Chain of 5-hydroxytryptamine receptor 6 (Homo sapiens) (P50406 whole entry): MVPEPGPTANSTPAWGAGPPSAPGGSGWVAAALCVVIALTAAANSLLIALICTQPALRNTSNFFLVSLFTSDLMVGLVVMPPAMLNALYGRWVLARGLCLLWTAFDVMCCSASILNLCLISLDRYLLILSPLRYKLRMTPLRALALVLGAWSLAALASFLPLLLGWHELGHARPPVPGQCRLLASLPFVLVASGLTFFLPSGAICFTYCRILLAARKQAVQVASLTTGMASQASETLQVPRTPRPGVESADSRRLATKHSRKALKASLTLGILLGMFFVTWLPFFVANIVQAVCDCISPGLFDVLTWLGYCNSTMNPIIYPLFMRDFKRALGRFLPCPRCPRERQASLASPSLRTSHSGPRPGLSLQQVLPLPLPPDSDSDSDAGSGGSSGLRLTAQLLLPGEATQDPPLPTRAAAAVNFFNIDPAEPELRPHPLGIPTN
Chain of Beta-3 adrenergic receptor (Homo sapiens) (P13945 whole entry, looked up): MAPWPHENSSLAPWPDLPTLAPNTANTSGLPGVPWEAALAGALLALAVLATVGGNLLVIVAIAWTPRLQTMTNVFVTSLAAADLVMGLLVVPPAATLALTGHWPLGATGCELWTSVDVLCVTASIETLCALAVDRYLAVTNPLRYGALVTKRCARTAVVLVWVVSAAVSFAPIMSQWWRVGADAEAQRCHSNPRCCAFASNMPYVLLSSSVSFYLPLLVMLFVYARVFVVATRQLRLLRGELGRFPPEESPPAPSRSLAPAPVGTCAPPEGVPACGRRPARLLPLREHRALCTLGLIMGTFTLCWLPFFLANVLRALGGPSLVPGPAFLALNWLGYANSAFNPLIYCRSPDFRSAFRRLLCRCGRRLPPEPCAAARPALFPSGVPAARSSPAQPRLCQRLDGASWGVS
Chain of D(1B) dopamine receptor (Homo sapiens) (P21918 whole entry): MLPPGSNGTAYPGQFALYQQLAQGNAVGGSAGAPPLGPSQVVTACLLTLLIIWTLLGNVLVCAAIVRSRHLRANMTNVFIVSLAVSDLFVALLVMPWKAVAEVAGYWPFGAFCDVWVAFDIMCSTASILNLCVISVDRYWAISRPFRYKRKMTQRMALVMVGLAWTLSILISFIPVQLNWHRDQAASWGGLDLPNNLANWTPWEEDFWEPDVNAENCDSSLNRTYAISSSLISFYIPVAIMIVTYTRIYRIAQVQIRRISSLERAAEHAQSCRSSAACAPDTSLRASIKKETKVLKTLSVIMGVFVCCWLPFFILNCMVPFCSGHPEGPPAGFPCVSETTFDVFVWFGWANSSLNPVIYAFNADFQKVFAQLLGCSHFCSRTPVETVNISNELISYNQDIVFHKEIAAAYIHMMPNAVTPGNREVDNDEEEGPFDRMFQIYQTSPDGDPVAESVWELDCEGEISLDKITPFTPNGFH

Row | Structure (SMILES) | inhibition [1] | inhibition [2] | inhibition [3] | inhibition [4] | inhibition [5] | inhibition [6] | inhibition [7] | inhibition [8] | inhibition [9] | inhibition [10] | inhibition [11]
1 | Cc1c(P(=S)(c2ccccc2)c2ccccc2)n2ccccc2[n+]1C/C=C/c1ccccc1 | 76.4% | 24.6% | 39.9% | 67.1% | 57.4% | 68.4% | 68.2% | 58.1% | 43.6% | 101% | 8.81%
2 | Cc1cn2cc(CC(=O)N3CCC4(CC3)CN(Cc3ccc(-n5nccn5)cc3Cl)C4)nc2s1 | 60.1% | -4.31% | 33.4% | 30.4% | 68.5% | 87.5% | 25.6% | 9.33% | 17.5% | 35.7% | 13.3%
